pIC50: −log10 of the molar value.
What was measured:
[1] = molecular target: T1, ER-α (Homo sapiens, UniProt P03372); experiment: Breast Cancer Cell ER-α in Cell Western Assay (SP1); assay type: cell-based; conditions: MCF7, read-out: ER In-Cell Western Assay (SP1); Max Response
T1 construct: endogenous in cells; host or cells: MCF-7
Experimental: Breast Cancer Cell ER-α in Cell Western Assay (SP1)
MCF-7 cells were adjusted to a concentration of 200,000 cells per mL in RPMI containing 10% charcoal-stripped FBS and 20 mM HEPES. 16 microliters of the cell suspension (3200 cells) was added to each well of a poly-D-lysine 384 well plate, and the cells were incubated overnight to allow the cells to adhere. The following day an eleven point, serial semilog dilution of each compound was added to the cells in 16 μL at a final concentration ranging from 0.3-0.000003 μM. At 4 or 24 hr post compound addition, the cells were fixed (10% formalin in PBS) for 20 minutes. Cells were permeablized in PBS 0.1% Triton and blocked with LICOR blocking buffer (50 μl/well, 90′). The wells were then incubated overnight at 4° C. with SP1 rabbit monoclonal Ab (Thermo Scientific) diluted 1:1000 in LICOR blocking buffer/0.1% Tween-20. Wells which were treated with blocking buffer with Tween but no antibody were used as a background control. Wells were washed with 0.1% Tween-20/PBS and then incubated in goat anti-rabbit IRDye™ 800CW (LICOR Inc.; 1:1000) and DRAQ5 DNA dye (1:2000 for 2 mM stock) diluted in LICOR blocking buffer containing 0.1% Tween-20 and 0.01% SDS for 60 minutes. Cells were washed (50 μl/well, 5′ each) in 0.1% Tween-20/PBS. Plates were scanned on a LICOR Odyssey infrared imaging system. Integrated intensities in the 800 nm channel and 700 nm channel were measured to determine levels of ER and DNA respectively. Percent ER levels were determined as follows: (Integrated intensity 800 nm sample/integrated intensity 700 nm sample)/(Integrated intensity 800 nm untreated cells/integrated intensity 700 nm untreated cells)×100=% ER levels.

[2] = test system: MCF-7 cells; experiment: Breast Cancer Cell Viability Assay (MCF7 Viability Assay); assay type: cell-based; conditions: for pIC50: Homo sapiens, MCF7, 120 h, read-out: MCF7 Viability Assay IC50; for MCF7 Viability Assay Max Response: MCF-7 cells, 5 days' compound exposure, CellTiter-Glo

T1 sequence (P03372 whole entry): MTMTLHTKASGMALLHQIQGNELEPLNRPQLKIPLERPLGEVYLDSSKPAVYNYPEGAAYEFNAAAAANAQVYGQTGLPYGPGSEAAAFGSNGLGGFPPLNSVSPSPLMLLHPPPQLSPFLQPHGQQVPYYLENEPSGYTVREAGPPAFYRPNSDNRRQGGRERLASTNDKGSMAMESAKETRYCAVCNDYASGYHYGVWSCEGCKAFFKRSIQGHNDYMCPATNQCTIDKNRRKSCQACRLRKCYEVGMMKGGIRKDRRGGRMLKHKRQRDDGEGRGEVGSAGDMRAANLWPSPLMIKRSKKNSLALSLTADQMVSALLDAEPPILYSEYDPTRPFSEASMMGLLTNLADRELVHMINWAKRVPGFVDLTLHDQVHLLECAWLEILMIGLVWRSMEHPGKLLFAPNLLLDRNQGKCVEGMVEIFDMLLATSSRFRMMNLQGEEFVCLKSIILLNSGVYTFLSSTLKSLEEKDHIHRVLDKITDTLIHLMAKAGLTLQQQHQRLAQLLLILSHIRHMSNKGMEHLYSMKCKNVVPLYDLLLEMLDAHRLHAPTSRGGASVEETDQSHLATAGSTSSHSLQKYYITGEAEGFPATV

Q: With `CC1=C(c2cccc(O)c2)C(c2ccc(OCCN3CCOC[C@@H]3C)cc2)Oc2ccc(O)cc21` (stereo partly drawn) [Example 23, 3-(3-Hydroxyphenyl)-4-methyl-2-(4-(2-((S)-3-methylmorpholino)ethoxy)phenyl)-2H-chromen-6-ol] as the molecule, how does the Emax [1] read?
A: The Emax was < 60%.

Q: And the pIC50 [2]?
A: Its pIC50 is < 9.00.

Q: And the “MCF7 Viability Assay Max Response” value [2]?
A: Its value is “+ (+ = a single % value <50%)”.

Q: Which results are given for `CC1=C(c2cccc(O)c2)C(c2ccc(OCCN3CCOC[C@H]3C)cc2)Oc2ccc(O)cc21` (stereo partly drawn) [Example 24, 3-(3-Hydroxyphenyl)-4-methyl-2-(4-(2-((R)-3-methylmorpholino)ethoxy)phenyl)-2H-chromen-6-ol]?
A: Emax [1]: < 60%; pIC50 [2]: > 9.00; MCF7 Viability Assay Max Response [2]: + (+ = a single % value <50%)

Q: With `CO[C@@H]1CCN([C@@H](C)COc2ccc(C3Oc4ccc(O)cc4C(C)=C3c3cccc(O)c3)cc2)C1` (stereo partly drawn) [Example 25, 3-(3-Hydroxyphenyl)-2-(4-((S)-2-((R)-3-methoxypyrrolidin-1-yl)propoxy)phenyl)-4-methyl-2H-chromen-6-ol] as the molecule, how does the Emax [1] read?
A: Its Emax is 60 to 85%.

Q: What about the pIC50 [2] of the same molecule?
A: Its pIC50 is > 9.00.

Q: And the “MCF7 Viability Assay Max Response” value [2]?
A: The value was “++ (++ = a single % value ≧50%)”.

Q: For `CC1=C(c2cccc(O)c2)C(c2ccc(OC[C@H](C)N3CC[C@@H](O)C3)cc2)Oc2ccc(O)cc21` (stereo partly drawn) [Example 26, (3R)-1-((2S)-1-(4-(6-Hydroxy-3-(3-hydroxyphenyl)-4-methyl-2H-chromen-2-yl)phenoxy)propan-2-yl)pyrrolidin-3-ol], which Emax [1] is on record?
A: The Emax was < 60%.

Q: And the pIC50 [2]?
A: Its pIC50 is > 9.00.

Q: What about the “MCF7 Viability Assay Max Response” value [2] of the same molecule?
A: The value was “+ (+ = a single % value <50%)”.

Q: Which Emax [1] does the source give for `CC1=C(c2cccc(O)c2)C(c2ccc(OC[C@H](C)N3CCOC[C@H]3C)cc2)Oc2ccc(O)cc21` (stereo partly drawn) [Example 27, 3-(3-Hydroxyphenyl)-4-methyl-2-(4-((S)-2-((R)-3-methylmorpholino)propoxy)phenyl)-2H-chromen-6-ol] here?
A: Its Emax is < 60%.

Q: What about the pIC50 [2] of the same molecule?
A: The pIC50 was > 9.00.

Q: And the “MCF7 Viability Assay Max Response” value [2]?
A: The value was “++ (++ = a single % value ≧50%)”.

Q: With `CC1=C(c2cccc(O)c2)C(c2ccc(OC[C@H](C)N3CCN(C)C[C@H]3C)cc2)Oc2ccc(O)cc21` (stereo partly drawn) [Example 28, 2-(4-((S)-2-((R)-2,4-Dimethylpiperazin-1-yl)propoxy)phenyl)-3-(3-hydroxyphenyl)-4-methyl-2H-chromen-6-ol] as the molecule, how does the Emax [1] read?
A: Its Emax is < 60%.

Q: What about the pIC50 [2] of the same molecule?
A: Its pIC50 is > 9.00.

Q: And the “MCF7 Viability Assay Max Response” value [2]?
A: Its value is “+ (+ = a single % value <50%)”.

Q: Which results are given for `CC1=C(c2cccc(O)c2)C(c2ccc(OC[C@H](C)N3CCOCC3)cc2)Oc2ccc(O)cc21` (stereo partly drawn) [Example 29, 3-(3-Hydroxyphenyl)-4-methyl-2-(4-((S)-2-morpholinopropoxy)phenyl)-2H-chromen-6-ol]?
A: Emax [1]: 60 to 85%; pIC50 [2]: > 9.00; MCF7 Viability Assay Max Response [2]: + (+ = a single % value <50%)

Q: Which Emax [1] does the source give for `COc1ccc2c(c1)C(C)=C(c1ccc(O)cc1)C(c1ccc(OC[C@H](C)N3CC[C@@H](C)C3)cc1)O2` (stereo partly drawn) [Example 30, 4-(6-Methoxy-4-methyl-2-(4-((S)-2-((R)-3-methylpyrrolidin-1-yl)propoxy)phenyl)-2H-chromen-3-yl)phenol] here?
A: The Emax was 60 to 85%.

Q: And the pIC50 [2]?
A: Its pIC50 is < 9.00.

Q: What about the “MCF7 Viability Assay Max Response” value [2] of the same molecule?
A: The value was “++ (++ = a single % value ≧50%)”.

Q: For `COc1cccc(C2=C(C)c3cc(O)ccc3OC2c2ccc(OC[C@H](C)N3CC[C@@H](C)C3)cc2)c1` (stereo partly drawn) [Example 31, 3-(3-Methoxyphenyl)-4-methyl-2-(4-((S)-2-((R)-3-methylpyrrolidin-1-yl)propoxy)phenyl)-2H-chromen-6-ol], which Emax [1] is on record?
A: The Emax was 60 to 85%.

Q: And the pIC50 [2]?
A: The pIC50 was < 9.00.

Q: And the “MCF7 Viability Assay Max Response” value [2]?
A: The value was “++ (++ = a single % value ≧50%)”.
